Results published in patent US20230053540A1, “TREATMENT OF LIVER INJURY” (Massachusetts Institute of Technology, priority 2019, published 2023).

System: hepatocytes
Assay: Seq-Well scRNA-Seq of hepatocytes after APAP overdose (signature scores, DEG vs untreated)
Type: in vivo, mouse
[1] = time point A24 vs untreated (UT)

For `CC(=O)Nc1ccc(O)cc1` [APAP, acetaminophen], the “Psme4 pct.1” value (time point A24) was 0.58, the “Ptprf pct.1” value (time point A24) was 0.588 and the “Raf13 pct.1” value (time point A24) was 0.612. For the same compound, the “Ranbp2 pct.1” value (time point A24) was 0.484, the “Rarres2 pct.1” value (time point A24) was 0.83 and the “Rpl13 pct.1” value (time point A24) was 0.306. For the same compound, the “Rplp1 pct.1” value (time point A24) was 0.597, the “Rps9 pct.1” value (time point A24) was 0.519 and the “Rps15 pct.1” value (time point A24) was 0.379. The “Sbno1 pct.1” value (time point A24) was 0.36, the “Sc4mol pct.1” value (time point A24) was 0.5 and the “Sco2 pct.1” value (time point A24) was 0.346. The “Sec31a pct.1” value (time point A24) was 0.462, the “Selenbp1 pct.1” value (time point A24) was 0.563 and the “Sh3bgrl pct.1” value (time point A24) was 0.512. For the same compound, the “Slc38a10 pct.1” value (time point A24) was 0.449, the “Slc39a14 pct.1” value (time point A24) was 0.495 and the “Srebf1 pct.1” value (time point A24) was 0.439. For the same compound, the “Srp72 pct.1” value (time point A24) was 0.597, the “Srpr pct.1” value (time point A24) was 0.532 and the “Stat3 pct.1” value (time point A24) was 0.459. For the same compound, the “Stt3b pct.1” value (time point A24) was 0.485, the “Surf4 pct.1” value (time point A24) was 0.656 and the “Tmem243 pct.1” value (time point A24) was 0.407. The “Tob1 pct.1” value (time point A24) was 0.565, the “Trib1 pct.1” value (time point A24) was 0.455 and the “Trip12 pct.1” value (time point A24) was 0.504. The “Txndc5 pct.1” value (time point A24) was 0.48, the “Txnrd1 pct.1” value (time point A24) was 0.564 and the “Uggt1 pct.1” value (time point A24) was 0.385. The “Uqcr11 pct.1” value (time point A24) was 0.769, the “Vkorc1 pct.1” value (time point A24) was 0.38 and the “Xiap pct.1” value (time point A24) was 0.504. The “Zbtb20 pct.1” value (time point A24) was 0.566, the “Adck3 avg_logFC” value [1] was −0.2825 and the “Arhgap5 avg_logFC” value [1] was 0.2952. The “Arhgef12 avg_logFC” value [1] was 0.3047, the “Arl5a avg_logFC” value [1] was 0.2648 and the “Atp1a1 avg_logFC” value [1] was 0.27. The “Atp5e avg_logFC” value [1] was −0.3136, the “Atp5f1 avg_logFC” value [1] was −0.2872 and the “Atp6v1f avg_logFC” value [1] was −0.2529. The “Atp11c avg_logFC” value [1] was 0.2605, the “Atp13a3 avg_logFC” value [1] was 0.3037 and the “Azin1 avg_logFC” value [1] was 0.2701. For the same compound, the “Bnip3 avg_logFC” value [1] was −0.2928, the “Brd2 avg_logFC” value [1] was 0.2664 and the “Bzw1 avg_logFC” value [1] was 0.2841. For the same compound, the “Cald1 avg_logFC” value [1] was 0.2589, the “Caprin1 avg_logFC” value [1] was 0.2628 and the “Ces3b avg_logFC” value [1] was −0.2867. The “Copb2 avg_logFC” value [1] was 0.2839, the “Copz1 avg_logFC” value [1] was 0.2577 and the “Cox7b avg_logFC” value [1] was −0.2674. The “Cpne3 avg_logFC” value [1] was 0.258, the “Ctnnb1 avg_logFC” value [1] was 0.2957 and the “Cyp4a14 avg_logFC” value [1] was −0.3729. For the same compound, the “Cyp27a1 avg_logFC” value [1] was −0.2516, the “Ddost avg_logFC” value [1] was 0.2504 and the “Dennd5b avg_logFC” value [1] was 0.2935. The “Deptor avg_logFC” value [1] was 0.2606, the “Dnajb9 avg_logFC” value [1] was 0.2586 and the “Dnajb11 avg_logFC” value [1] was 0.3154. The “Eci1 avg_logFC” value [1] was −0.2764, the “Edem1 avg_logFC” value [1] was 0.2869 and the “Ehhadh avg_logFC” value [1] was −0.2505. The “Eif4b avg_logFC” value [1] was 0.256, the “Ell2 avg_logFC” value [1] was 0.2881 and the “Eprs avg_logFC” value [1] was 0.3013. For the same compound, the “Erbb2ip avg_logFC” value [1] was 0.2797, the “Erp44 avg_logFC” value [1] was 0.2795 and the “Esd avg_logFC” value [1] was −0.2538. For the same compound, the “Fam120a avg_logFC” value [1] was 0.28, the “Fasn avg_logFC” value [1] was 0.2914 and the “Fcgrt avg_logFC” value [1] was −0.2693. For the same compound, the “Gch1 avg_logFC” value [1] was −0.2825, the “Gm23935 avg_logFC” value [1] was 0.7213 and the “Gm24245 avg_logFC” value [1] was 0.4242. The “Golga4 avg_logFC” value [1] was 0.2718, the “Gpam avg_logFC” value [1] was 0.2504 and the “Grlf1 avg_logFC” value [1] was 0.295. For the same compound, the “Gstm3 avg_logFC” value [1] was −0.3186, the “H6pd avg_logFC” value [1] was 0.2614 and the “Id3 avg_logFC” value [1] was −0.3511. The “Ide avg_logFC” value [1] was 0.2517, the “Iqgap2 avg_logFC” value [1] was 0.2547 and the “Ireb2 avg_logFC” value [1] was 0.2657. For the same compound, the “Jak1 avg_logFC” value [1] was 0.2541, the “Lasp1 avg_logFC” value [1] was 0.253 and the “Lgr4 avg_logFC” value [1] was 0.269. The “Lpin2 avg_logFC” value [1] was 0.2776, the “Macf1 avg_logFC” value [1] was 0.2617 and the “Magt1 avg_logFC” value [1] was 0.2633. The “Man2a1 avg_logFC” value [1] was 0.2833, the “Mbnl1 avg_logFC” value [1] was 0.2502 and the “Met avg_logFC” value [1] was 0.2883. The “Mt1 avg_logFC” value [1] was −0.3482, the “Mtss1 avg_logFC” value [1] was 0.2876 and the “Nadk2 avg_logFC” value [1] was 0.2579. For the same compound, the “Narf avg_logFC” value [1] was 0.2629, the “Ndufa6 avg_logFC” value [1] was −0.3068 and the “Ndufb6 avg_logFC” value [1] was −0.3064. The “Ndufc2 avg_logFC” value [1] was −0.308, the “Nop10 avg_logFC” value [1] was −0.2649 and the “Nr1i3 avg_logFC” value [1] was −0.2821. For the same compound, the “Nrp1 avg_logFC” value [1] was 0.3341, the “Osbp19 avg_logFC” value [1] was 0.2788 and the “Osbpl1a avg_logFC” value [1] was 0.2728. The “Ostc avg_logFC” value [1] was 0.2658, the “Pik3c2a avg_logFC” value [1] was 0.2594 and the “Plin5 avg_logFC” value [1] was −0.2778. The “Prdx4 avg_logFC” value [1] was −0.3074, the “Prdx5 avg_logFC” value [1] was −0.2609 and the “Prkaa2 avg_logFC” value [1] was 0.2636. The “Prox1 avg_logFC” value [1] was 0.2663, the “Proz avg_logFC” value [1] was 0.2632 and the “Psme4 avg_logFC” value [1] was 0.2626. The “Ptprf avg_logFC” value [1] was 0.3071, the “Raf13 avg_logFC” value [1] was 0.2553 and the “Ranbp2 avg_logFC” value [1] was 0.2659. For the same compound, the “Rarres2 avg_logFC” value [1] was −0.2666, the “Rpl13 avg_logFC” value [1] was −0.2997 and the “Rplp1 avg_logFC” value [1] was −0.2866. For the same compound, the “Rps9 avg_logFC” value [1] was −0.314, the “Rps15 avg_logFC” value [1] was −0.3561 and the “Sbno1 avg_logFC” value [1] was 0.2505. The “Sc4mol avg_logFC” value [1] was −0.2735, the “Sco2 avg_logFC” value [1] was −0.2929 and the “Sec31a avg_logFC” value [1] was 0.263. For the same compound, the “Selenbp1 avg_logFC” value [1] was −0.28, the “Sh3bgrl avg_logFC” value [1] was 0.2513 and the “Slc38a10 avg_logFC” value [1] was 0.2855. For the same compound, the “Slc39a14 avg_logFC” value [1] was 0.323, the “Srebf1 avg_logFC” value [1] was 0.2762 and the “Srp72 avg_logFC” value [1] was 0.3107. The “Srpr avg_logFC” value [1] was 0.3052, the “Stat3 avg_logFC” value [1] was 0.2974 and the “Stt3b avg_logFC” value [1] was 0.3194. The “Surf4 avg_logFC” value [1] was 0.2586, the “Tmem243 avg_logFC” value [1] was −0.2656 and the “Tob1 avg_logFC” value [1] was 0.3129. For the same compound, the “Trib1 avg_logFC” value [1] was 0.2875, the “Trip12 avg_logFC” value [1] was 0.3283 and the “Txndc5 avg_logFC” value [1] was 0.2901. The “Uggt1 avg_logFC” value [1] was 0.2845, the “Uqcr11 avg_logFC” value [1] was −0.2632 and the “Vkorc1 avg_logFC” value [1] was −0.2974. The “Xiap avg_logFC” value [1] was 0.2602, the “Zbtb20 avg_logFC” value [1] was 0.3791 and the “pct.1 Acsl1” value (time point A48A96) was 0.977. The “pct.1 Aldh3a2” value (time point A48A96) was 0.592, the “pct.1 Atp1a1” value (time point A48A96) was 0.701 and the “pct.1 Atp5d” value (time point A48A96) was 0.866. For the same compound, the “pct.1 C6” value (time point A48A96) was 0.653, the “pct.1 Ces1e” value (time point A48A96) was 0.791 and the “pct.1 Ctsd” value (time point A48A96) was 0.831. For the same compound, the “pct.1 Cyp4a12a” value (time point A48A96) was 0.509, the “pct.1 Ech1” value (time point A48A96) was 0.951 and the “pct.1 F5” value (time point A48A96) was 0.881. The “pct.1 F9” value (time point A48A96) was 0.836, the “pct.1 F12” value (time point A48A96) was 0.922 and the “pct.1 Fcgrt” value (time point A48A96) was 0.806. The “pct.1 Fn1” value (time point A48A96) was 0.932, the “pct.1 Ftl1” value (time point A48A96) was 0.438 and the “pct.1 Gabarapl1” value (time point A48A96) was 0.917. For the same compound, the “pct.1 Gclm” value (time point A48A96) was 0.893, the “pct.1 Glul” value (time point A48A96) was 0.257 and the “pct.1 Gm4076” value (time point A48A96) was 0.047. The “pct.1 Gm20594” value (time point A48A96) was 0.222, the “pct.1 Gsta2” value (time point A48A96) was 0.583 and the “pct.1 Hadha” value (time point A48A96) was 0.895. For the same compound, the “pct.1 Hal” value (time point A48A96) was 0.824, the “pct.1 Hgfac” value (time point A48A96) was 0.682 and the “pct.1 Hsd17b4” value (time point A48A96) was 0.943. The “pct.1 Ifitm3” value (time point A48A96) was 0.823, the “pct.1 Inmt” value (time point A48A96) was 0.935 and the “pct.1 Lpgat1” value (time point A48A96) was 0.747. For the same compound, the “pct.1 Lpin1” value (time point A48A96) was 0.515, the “pct.1 Ndufb2” value (time point A48A96) was 0.814 and the “pct.1 Park7” value (time point A48A96) was 0.902. The “pct.1 Pck1” value (time point A48A96) was 0.998, the “pct.1 Pipox” value (time point A48A96) was 0.774 and the “pct.1 Ppp2r5a” value (time point A48A96) was 0.803. For the same compound, the “pct.1 Ptms” value (time point A48A96) was 0.857, the “pct.1 Rarres1” value (time point A48A96) was 0.327 and the “pct.1 Rpl32” value (time point A48A96) was 0.766. For the same compound, the “pct.1 Rpl41” value (time point A48A96) was 0.304, the “pct.1 Sardh” value (time point A48A96) was 0.939 and the “pct.1 Sdhd” value (time point A48A96) was 0.837. The “pct.1 Sds” value (time point A48A96) was 0.671, the “pct.1 Sec61a1” value (time point A48A96) was 0.7 and the “pct.1 Serpina12” value (time point A48A96) was 0.38. For the same compound, the “pct.1 Sfxn1” value (time point A48A96) was 0.702, the “pct.1 Slc2a2” value (time point A48A96) was 0.716 and the “pct.1 Slc37a4” value (time point A48A96) was 0.717. The “pct.1 Tmem106b” value (time point A48A96) was 0.787, the “pct.1 Ubb” value (time point A48A96) was 0.465 and the “pct.1 Ubxn4” value (time point A48A96) was 0.802. The “pct.1 Upb1” value (time point A48A96) was 0.895, the “pct.1 Usmg5” value (time point A48A96) was 0.677 and the “pct.1 mmu-mir-6236” value (time point A48A96) was 0.859. For the same compound, the “pct.1 mt-Atp6” value (time point A48A96) was 0.326.
